Reference: ChEMBL document CHEMBL3885881, “DrugMatrix”

Species on record: Rattus norvegicus
Assay: DrugMatrix - Regimen: Daily Repeat
Assay type: toxicity, organism-based, Sprague-Dawley
Set-up: regimen Daily Repeat, gender Male, age 6-8 weeks
Conditions: in vivo, po, route oral GAVAGE, vehicle .5 % CMC; for ABSOLUTE BASOPHIL / ABSOLUTE EOSINOPHIL / ABSOLUTE LYMPHOCYTE / ABSOLUTE MONOCYTE / ABSOLUTE SEGMENTED NEUTROPHIL / BASOPHIL / EOSINOPHIL / ERYTHROCYTE COUNT / HEMATOCRIT / HEMOGLOBIN / LEUKOCYTE COUNT / LYMPHOCYTE / MEAN CORPUSCULAR HEMOGLOBIN / MEAN CORPUSCULAR HEMOGLOBIN CONCENTRATION / MEAN CORPUSCULAR VOLUME / MONOCYTE / NEUTROPHIL / NUCLEATED RED BLOOD CELLS / PLATELET COUNT: tissue Blood; for ALANINE AMINOTRANSFERASE / ALBUMIN / ALKALINE PHOSPHATASE / ASPARTATE AMINOTRANSFERASE / BLOOD UREA NITROGEN / CARBON DIOXIDE / CHLORIDE / CHOLESTEROL / CREATINE PHOSPHOKINASE / CREATININE / GLUCOSE / LACTATE DEHYDROGENASE / LIPASE / PHOSPHORUS / POTASSIUM / SODIUM / TOTAL BILIRUBIN / TOTAL PROTEIN / URIC ACID: tissue Plasma
[1] = 0 mg/kg, 72 h, dose level Control, time 3 day
[2] = 0 mg/kg, 120 h, dose level Control, time 5 day
[3] = 47 mg/kg, 72 h, dose level High, time 3 day

## CN(C)C(=O)C(CCN1CCC(O)(c2ccc(Cl)cc2)CC1)(c1ccccc1)c1ccccc1 [LOPERAMIDE]
[1]
  ABSOLUTE BASOPHIL: 0 CELLS/uL
  ABSOLUTE EOSINOPHIL: 0 CELLS/uL
  ABSOLUTE LYMPHOCYTE: 12191.17 CELLS/uL
  ABSOLUTE MONOCYTE: 183.17 CELLS/uL
  ABSOLUTE SEGMENTED NEUTROPHIL: 1192.33 CELLS/uL
  BASOPHIL: 0%
  EOSINOPHIL: 0%
  ERYTHROCYTE COUNT: 5.51 x10E6/uL
  HEMATOCRIT: 35.45%
  HEMOGLOBIN: 13.82 G/DL
  LEUKOCYTE COUNT: 13.57 x10E3/uL
  LYMPHOCYTE: 89.83%
  MEAN CORPUSCULAR HEMOGLOBIN: 25.1 pg
  MEAN CORPUSCULAR HEMOGLOBIN CONCENTRATION: 38.98 G/DL
  MEAN CORPUSCULAR VOLUME: 64.42 fL
  MONOCYTE: 1.33%
  NEUTROPHIL: 8.83%
  NUCLEATED RED BLOOD CELLS: 0 /100WBC
  PLATELET COUNT: 1118.17 x10E3/uL
  ALANINE AMINOTRANSFERASE: 55 u/L
  ALBUMIN: 4.15 G/DL
  ALKALINE PHOSPHATASE: 449.5 u/L
  ASPARTATE AMINOTRANSFERASE: 112.83 u/L
  BLOOD UREA NITROGEN: 17.33 mg/dL
  CARBON DIOXIDE: 29.5 mmol/L
  CHLORIDE: 101 MEQ/L
  CHOLESTEROL: 70 mg/dL
  CREATINE PHOSPHOKINASE: 1325.83 u/L
  CREATININE: 0.18 mg/dL
  GLUCOSE: 171.5 mg/dL
  LACTATE DEHYDROGENASE: 386 u/L
  LIPASE: 10 u/L
  PHOSPHORUS: 11.57 mg/dL
  POTASSIUM: 6.21 MEQ/L
  SODIUM: 141.65 MEQ/L
  TOTAL BILIRUBIN: 0.15 mg/dL
  TOTAL PROTEIN: 5.75 G/DL
  URIC ACID: 1.28 mg/dL
[2]
  ABSOLUTE BASOPHIL: 0 CELLS/uL
  ABSOLUTE EOSINOPHIL: 138.17 CELLS/uL
  ABSOLUTE LYMPHOCYTE: 13283.17 CELLS/uL
  ABSOLUTE MONOCYTE: 303.83 CELLS/uL
  ABSOLUTE SEGMENTED NEUTROPHIL: 1308.17 CELLS/uL
  BASOPHIL: 0%
  EOSINOPHIL: 1%
  ERYTHROCYTE COUNT: 5.32 x10E6/uL
  HEMATOCRIT: 33.8%
  HEMOGLOBIN: 13.63 G/DL
  LEUKOCYTE COUNT: 15.03 x10E3/uL
  LYMPHOCYTE: 88.33%
  MEAN CORPUSCULAR HEMOGLOBIN: 25.68 pg
  MEAN CORPUSCULAR HEMOGLOBIN CONCENTRATION: 40.35 G/DL
  MEAN CORPUSCULAR VOLUME: 63.67 fL
  MONOCYTE: 1.83%
  NEUTROPHIL: 8.83%
  NUCLEATED RED BLOOD CELLS: 0 /100WBC
  PLATELET COUNT: 1097.5 x10E3/uL
  ALANINE AMINOTRANSFERASE: 54.5 u/L
  ALBUMIN: 4.27 G/DL
  ALKALINE PHOSPHATASE: 337 u/L
  ASPARTATE AMINOTRANSFERASE: 94.67 u/L
  BLOOD UREA NITROGEN: 17 mg/dL
  CARBON DIOXIDE: 28.33 mmol/L
  CHLORIDE: 101.5 MEQ/L
  CHOLESTEROL: 71.33 mg/dL
  CREATINE PHOSPHOKINASE: 628.17 u/L
  CREATININE: 0.19 mg/dL
  GLUCOSE: 177.83 mg/dL
  LACTATE DEHYDROGENASE: 500.5 u/L
  LIPASE: 9.5 u/L
  PHOSPHORUS: 12.3 mg/dL
  POTASSIUM: 5.63 MEQ/L
  SODIUM: 143.03 MEQ/L
  TOTAL BILIRUBIN: 0.2 mg/dL
  TOTAL PROTEIN: 6.02 G/DL
  URIC ACID: 1.5 mg/dL
[3]
  ABSOLUTE BASOPHIL: 0 CELLS/uL
  ABSOLUTE EOSINOPHIL: 41.67 CELLS/uL
  ABSOLUTE LYMPHOCYTE: 10763.67 CELLS/uL
  ABSOLUTE MONOCYTE: 116.33 CELLS/uL
  ABSOLUTE SEGMENTED NEUTROPHIL: 1178.33 CELLS/uL
  BASOPHIL: 0%
  EOSINOPHIL: 0.33%
  ERYTHROCYTE COUNT: 5.35 x10E6/uL
  HEMATOCRIT: 35.5%
  HEMOGLOBIN: 13.67 G/DL
  LEUKOCYTE COUNT: 12.1 x10E3/uL
  LYMPHOCYTE: 89%
  MEAN CORPUSCULAR HEMOGLOBIN: 25.6 pg
  MEAN CORPUSCULAR HEMOGLOBIN CONCENTRATION: 38.47 G/DL
  MEAN CORPUSCULAR VOLUME: 66.47 fL
  MONOCYTE: 1%
  NEUTROPHIL: 9.67%
  NUCLEATED RED BLOOD CELLS: 0 /100WBC
  PLATELET COUNT: 1353 x10E3/uL
  ALANINE AMINOTRANSFERASE: 75 u/L
  ALBUMIN: 3.9 G/DL
  ALKALINE PHOSPHATASE: 286.67 u/L
  ASPARTATE AMINOTRANSFERASE: 88 u/L
  BLOOD UREA NITROGEN: 15 mg/dL
  CARBON DIOXIDE: 30.67 mmol/L
  CHLORIDE: 102 MEQ/L
  CHOLESTEROL: 68 mg/dL
  CREATINE PHOSPHOKINASE: 336.67 u/L
  CREATININE: 0.15 mg/dL
  GLUCOSE: 144.33 mg/dL
  LACTATE DEHYDROGENASE: 285.33 u/L
  LIPASE: 9.33 u/L
  PHOSPHORUS: 11.33 mg/dL
  POTASSIUM: 6.22 MEQ/L
  SODIUM: 144.77 MEQ/L
  TOTAL BILIRUBIN: 0.1 mg/dL
  TOTAL PROTEIN: 5.5 G/DL
  URIC ACID: 1.43 mg/dL
